Data set [1] in a line: Fluorescence maximum of the dye. It is filed as physicochemical. The text has this:
(§1) Examples of the compounds according to the invention are listed in Tables 2-6, where the structures as well as the absorption and fluorescence maxima are indicated. The spectra of selected compounds are shown FIGS. 5-18.

Data set [2] in a line: Absorption maximum of the dye. It is filed as physicochemical.
Excerpt: as §1

Marks after values point to notes of the source that are not given here.

For the compound `CC1(C)c2cc3c(cc2C(c2c(F)c(F)c(SCC(=O)O)c(F)c2F)=c2cc4c(cc21)=[N+](Cc1ccc(S(=O)(=O)O)cc1S(=O)(=O)O)C(C)(C)CC4CS(=O)(=O)O)C(CS(=O)(=O)O)=CC(C)(C)N3Cc1ccc(S(=O)(=O)O)cc1S(=O)(=O)O` (stereo not shown) [Compound 40], the λfl in data set [1] (solvent PBS pH 7.4) is 720^b nm. The λabs in data set [2] (solvent PBS pH 7.4) is reported as 699^b nm.

For the compound `CC1(C)C=C(CS(=O)(=O)O)c2cc3c(cc2N1Cc1ccc(S(=O)(=O)O)cc1S(=O)(=O)O)Oc1cc2c(cc1=N3)C(CS(=O)(=O)O)=CC(C)(C)[N+]=2CCCC(=O)O` [Compound 100], the λfl in data set [1] (solvent PBS pH 7.4) is 718^b nm. Further, the λabs in data set [2] (solvent PBS pH 7.4) is on record as 701^b nm.

Take `CC1=CC(C)(C)N(Cc2ccc(S(=O)(=O)O)cc2)c2cc3c(cc21)C(c1n(C)cc[n+]1CCCCS(=O)(=O)O)=c1cc2c(cc1C3(C)C)=[N+](CCCC(=O)O)C(C)(C)C=C2C` [Compound 58]: in data set [1] (solvent PBS pH 7.4), the λfl is reported as 775^b nm. Moreover, the λabs in data set [2] (solvent PBS pH 7.4) is 742^b nm.

On to `Cc1c(CC(=O)O)c(=O)oc2cc(NCS(=O)(=O)O)ccc12` [Compound 110], for which the λfl in data set [1] (solvent PBS pH 7.4) is reported as 353^b nm. In data set [2] (solvent PBS pH 7.4), the λabs is 354^b nm.

On to `CN(CCCC(=O)O)C(=O)c1ccccc1-c1c2ccc(=[N+](Cc3ccc(S(=O)(=O)O)cc3S(=O)(=O)O)Cc3ccc(S(=O)(=O)O)cc3S(=O)(=O)O)cc-2oc2cc(N(Cc3ccc(S(=O)(=O)O)cc3S(=O)(=O)O)Cc3ccc(S(=O)(=O)O)cc3S(=O)(=O)O)ccc12` [Compound 9], for which the λfl in data set [1] (solvent PBS pH 7.4) is given as 572^b nm. In data set [2] (solvent water/acetonitrile 1:1), the λabs is 550^c nm.

For `CC1(C)C=C(CS(=O)(=O)O)c2cc3c(cc2N1Cc1ccc(S(=O)(=O)O)cc1S(=O)(=O)O)[Si](C)(C)c1cc2c(cc1=C3c1cc(C(=O)O)ccc1C(=O)O)C(CS(=O)(=O)O)=CC(C)(C)[N+]=2Cc1ccc(S(=O)(=O)O)cc1S(=O)(=O)O` [Compound 72], the λfl in data set [1] (solvent PBS pH 7.4) is listed as 740^b nm. In addition, the λabs in data set [2] (solvent PBS pH 7.4) was 711^b nm.

Turning to `Cc1cc(=O)n(CC(=O)O)c2cc(NCc3ccc(S(=O)(=O)O)cc3S(=O)(=O)O)c(S(=O)(=O)O)cc12` [Compound 109], the λfl in data set [1] (solvent PBS pH 7.4) was 418^b nm. Also, in data set [2] (solvent PBS pH 7.4), the λabs is 349^b nm.

As for `CC1(C)c2cc3c(cc2N=c2cc4c(cc21)=[N+](CCCC(=O)O)C(C)(C)C=C4CS(=O)(=O)O)CCCN3Cc1ccc(S(=O)(=O)O)cc1S(=O)(=O)O` [Compound 103], the λfl in data set [1] (solvent PBS pH 7.4) is recorded as 761^b nm. The λabs in data set [2] (solvent PBS pH 7.4) was 740^b nm.

Consider `CC1(C)c2cc3c(cc2C(NCC(S(=O)(=O)O)S(=O)(=O)O)=c2cc4c(cc21)=[N+](Cc1ccc(S(=O)(=O)O)cc1S(=O)(=O)O)C(C)(C)C=C4CS(=O)(=O)O)CCCN3CCCC(=O)O` [Compound 84], for which the λfl in data set [1] (solvent PBS pH 7.4) was 644^b nm. Also, the λabs in data set [2] (solvent PBS pH 7.4) is listed as 490^b nm.

Consider `CN(C)c1ccc2c(c1)C(C)(C)c1cc3c(cc1=C2C#N)CCC[N+]=3Cc1ccc(S(=O)(=O)O)cc1S(=O)(=O)O` [Compound 77], for which the λfl in data set [1] (solvent PBS pH 7.4) is recorded as 751^b nm. Further, the λabs in data set [2] (solvent PBS pH 7.4) is listed as 730^b nm.

With `CC1(C)c2cc3c(cc2N=c2cc4c(cc21)=[N+](CCCC(=O)O)C(C)(C)C=C4CS(=O)(=O)O)C(CS(=O)(=O)O)=CC(C)(C)N3Cc1ccc(S(=O)(=O)O)cc1S(=O)(=O)O` [Compound 104], in data set [1] (solvent PBS pH 7.4), the λfl is 778^b nm. Besides, the λabs in data set [2] (solvent PBS pH 7.4) is recorded as 758^b nm.

For `C[N+](C)=C1C=CC2=C(NC(CCS(=O)(=O)O)C(=O)O)c3cc4c(cc3C(C)(C)C2=C1)N(Cc1ccc(S(=O)(=O)O)cc1S(=O)(=O)O)CCC4` (stereo not shown) [Compound 85], the λfl in data set [1] (solvent PBS pH 7.4) was 673^b nm. Also, the λabs in data set [2] (solvent PBS pH 7.4) was 496^b nm.

As for `CN(C)c1ccc2c(c1)C(C)(C)C1=C/C(=[N+](/C)Cc3ccc(S(=O)(=O)O)cc3S(=O)(=O)O)C=CC1=C2c1c(F)c(F)c(F)c(F)c1F` [Compound 37], in data set [1] (solvent PBS pH 7.4), the λfl is recorded as 661^b nm. Also, the λabs in data set [2] (solvent PBS pH 7.4) is given as 642^b nm.

Turning to `Cc1cc(=O)n(CC(=O)O)c2cc(NCS(=O)(=O)O)ccc12` [Compound 106], the λfl in data set [1] (solvent PBS pH 7.4) is on record as 410^b nm. In addition, the λabs in data set [2] (solvent PBS pH 7.4) is 350^b nm.

Take `CN(CCCC(=O)O)C(=O)c1ccccc1C1=c2cc3c(cc2C(C)(C)c2c1cc1c4c2CCCN4CCC1)=[N+](Cc1ccc(S(=O)(=O)O)cc1S(=O)(=O)O)CCC3` [Compound 41]: the λfl in data set [1] (solvent PBS pH 7.4) is 659 nm; in data set [1] (solvent ethanol), 663 nm. Besides, the λabs in data set [2] (solvent PBS pH 7.4) came to 640 nm; in data set [2] (solvent ethanol), 642 nm.

In the case of `CCN1c2cc3c(cc2C(CS(=O)(=O)O)=CC1(C)C)C(c1ccccc1C(=O)N(C)CCCC(=O)O)=c1cc2c(cc1C3(C)C)=[N+](Cc1ccc(S(=O)(=O)O)cc1S(=O)(=O)O)C(C)(C)C=C2CS(=O)(=O)O` [Compound 65], the λfl in data set [1] (solvent PBS pH 7.4) is 706^b nm. For the same compound, in data set [2] (solvent PBS pH 7.4), the λabs is 679^b nm.

`CCN(Cc1ccccc1S(=O)(=O)O)c1ccc2c(-c3ccccc3C(=O)O)c3cc/c(=[N+](\CC)Cc4ccccc4S(=O)(=O)O)cc-3oc2c1` [Compound 2]: in data set [1] (solvent PBS pH 7.4), the λfl is reported as 584^b nm. Also, the λabs in data set [2] (solvent water/acetonitrile 1:1) was 554^c nm.

For the compound `CC1(C)c2cc3c(cc2C(NCC(S(=O)(=O)O)S(=O)(=O)O)=c2cc4c(cc21)=[N+](Cc1ccc(S(=O)(=O)O)cc1S(=O)(=O)O)C(C)(C)C=C4CS(=O)(=O)O)C(CS(=O)(=O)O)=CC(C)(C)N3CCCC(=O)O` [Compound 86], in data set [1] (solvent PBS pH 7.4), the λfl is 660^b nm. Besides, in data set [2] (solvent PBS pH 7.4), the λabs is recorded as 502^b nm.

Consider `Cc1cc(=O)n(CC(=O)O)c2cc(NCc3ccc(S(=O)(=O)O)cc3S(=O)(=O)O)ccc12` [Compound 107], for which the λfl in data set [1] (solvent PBS pH 7.4) was 413^b nm. The λabs in data set [2] (solvent PBS pH 7.4) was 351^b nm.

For `Cn1cc[n+](CCCC(=O)O)c1C1=c2cc3c(cc2[Si](C)(C)c2cc4c(cc21)C(CS(=O)(=O)O)=CC(C)(C)N4Cc1ccc(S(=O)(=O)O)cc1S(=O)(=O)O)=[N+](Cc1ccc(S(=O)(=O)O)cc1S(=O)(=O)O)C(C)(C)C=C3CS(=O)(=O)O` [Compound 62], the λfl in data set [1] (solvent PBS pH 7.4) is on record as 817^b nm. Moreover, the λabs in data set [2] (solvent PBS pH 7.4) is on record as 791^b nm.

For the compound `CN(CCCC(=O)O)C(=O)c1ccccc1C1=c2cc3c(cc2C(C)(C)c2cc4c(cc21)C(CS(=O)(=O)O)=CC(C)(C)N4Cc1ccc(S(=O)(=O)O)cc1S(=O)(=O)O)=[N+](Cc1ccc(S(=O)(=O)O)cc1S(=O)(=O)O)C(C)(C)C=C3CS(=O)(=O)O` [Compound 67], in data set [1] (solvent PBS pH 7.4), the λfl is listed as 707^b nm. Further, the λabs in data set [2] (solvent PBS pH 7.4) is listed as 679^b nm.

For the compound `CN(Cc1ccc(S(=O)(=O)O)cc1S(=O)(=O)O)c1ccc2c(c1)C(C)(C)C1=C/C(=[N+](/C)Cc3ccc(S(=O)(=O)O)cc3S(=O)(=O)O)C=CC1=C2c1c(F)c(F)c(F)c(F)c1F` [Compound 46], the λfl in data set [1] (solvent PBS pH 7.4) is 666^b nm. The λabs in data set [2] (solvent PBS pH 7.4) is listed as 646^b nm.

As for `CCN(Cc1ccc(S(=O)(=O)O)cc1S(=O)(=O)O)c1ccc2c(-c3ccccc3C(=O)O)c3cc/c(=[N+](\CC)Cc4ccc(S(=O)(=O)O)cc4S(=O)(=O)O)cc-3oc2c1` [Compound 3], the λfl in data set [1] (solvent PBS pH 7.4) is listed as 583^b nm. Further, the λabs in data set [2] (solvent water/acetonitrile 1:1) is 550^c nm.

`CCN(CS(=O)(=O)O)c1ccc2c(c1)[Si](C)(C)C1=C/C(=[N+](/CC)CS(=O)(=O)O)C=CC1=C2NCC(S(=O)(=O)O)S(=O)(=O)O` [Compound 88]: the λfl in data set [1] (solvent PBS pH 7.4) is 605^b nm. For the same compound, in data set [2] (solvent PBS pH 7.4), the λabs is given as 471^b nm.

On to `CN(CCCC(=O)O)C(=O)c1ccccc1C1=c2cc3c(cc2C(C)(C)c2cc4c(cc21)C(CS(=O)(=O)O)CC(C)(C)N4Cc1ccc(S(=O)(=O)O)cc1S(=O)(=O)O)=[N+](Cc1ccc(S(=O)(=O)O)cc1S(=O)(=O)O)C(C)(C)CC3CS(=O)(=O)O` (stereo not shown) [Compound 68], for which, in data set [1] (solvent PBS pH 7.4), the λfl is on record as 666^b nm. Also, the λabs in data set [2] (solvent PBS pH 7.4) was 645^b nm.
